One experiment relates to AsPC-1 cells. The experiment is described as follows: AsPC-1 cell proliferation assay (CellTiter Glo). The format is cell-based. Particulars: Homo sapiens, ASPC1, 144 h, 6 days. The method, boiled down: (§1)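 Half-maximal degradation (DC50) and inhibition (IC50) concentrations are fitted from dose-response curves spanning […] to 1.5 nM final. KRAS G12D loss is measured by fluorescent antibody staining with β-actin reference after 24 h; growth is measured by ATP luminescence after a 6-day exposure.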
For orientation: In ATP-based viability assays light output follows the ATP content of the culture.

For the next experiment, the target named is T1, KRAS (G12D) (Homo sapiens, UniProt P01116, G12D).
T1 construct: in-cell western with KRAS G12D antibody after 24 h
T1 sequence (P01116 1-188 isoform P01116-2 G12D): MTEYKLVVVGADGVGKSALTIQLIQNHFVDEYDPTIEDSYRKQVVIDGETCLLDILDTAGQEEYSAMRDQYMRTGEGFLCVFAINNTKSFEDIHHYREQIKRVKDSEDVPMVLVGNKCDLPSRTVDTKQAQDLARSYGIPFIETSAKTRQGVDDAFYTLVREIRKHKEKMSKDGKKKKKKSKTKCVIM
The experiment is described as follows: KRAS (G12D) cellular degradation assay in AsPC-1 cells. The format is cell-based. Particulars: 24 hours, antibody fluorescence (Odyssey CLX), DC50 half-maximal degradation concentration. In short, it runs like this:
as §1

Structures are written as SMILES. Where only a bound is given, the exact number is not on record here.

As a reminder, the IC50 is the concentration that inhibits the measured activity by half. Lower therefore signals inhibition by little substance. One may read the DC50 as the concentration giving 50% degradation. Low readings indicate degradation at low concentration, high ones degradation only at high concentration. Turning to `CO[C@H]1C[C@H](Oc2nc(N(C)[C@@H]3CCNC3)c3cc(C4CC4)c(-c4c(C)c(F)cc5[nH]ncc45)c(OCc4ccc(-c5cn([C@H](C(=O)N6C[C@H](O)C[C@H]6C(=O)N[C@H](c6ccc(-c7scnc7C)cc6)[C@H](C)O)C(C)C)nn5)cc4)c3n2)C1` [Example 202, (2S,4R)-1-((2S)-2-(4-(4-(((6-cyclopropyl-7-(6-fluoro-5-methyl-1H-indazol-4-yl)-2-((1r,3R)-3-methoxycyclobutoxy)-4-(methyl((R)-pyrrolidin-3-yl)amino)quinazolin-8-yl)oxy)methyl)phenyl)-1H-1,2,3-triazol-1-yl)-3-methylbutanoyl)-4-hydroxy-N-((1R,2S)-2-hydroxy-1-(4-(4-methylthiazol-5-yl)phenyl)propyl)pyrrolidine-2-carboxamide], in the experiment on AsPC-1 cells, the half-maximal inhibitory concentration (IC50) is under 10 nM. The DC50 at KRAS (G12D) is under 10 nM.

Take `CO[C@H]1C[C@H](Oc2nc(N(C)[C@@H]3CCNC3)c3cc(C4CC4)c(-c4c(C)c(F)cc5[nH]ncc45)c(OCc4ccc(-c5cn([C@H](C(=O)N6C[C@H](O)C[C@H]6C(=O)N[C@@H](CO)c6ccc(-c7scnc7C)cc6)C(C)C)nn5)cc4)c3n2)C1` [Example 203, (2S,4R)-1-((2S)-2-(4-(4-(((6-cyclopropyl-7-(6-fluoro-5-methyl-1H-indazol-4-yl)-2-((1r,3R)-3-methoxycyclobutoxy)-4-(methyl((R)-pyrrolidin-3-yl)amino)quinazolin-8-yl)oxy)methyl)phenyl)-1H-1,2,3-triazol-1-yl)-3-methylbutanoyl)-4-hydroxy-N—((R)-2-hydroxy-1-(4-(4-methylthiazol-5-yl)phenyl)ethyl)pyrrolidine-2-carboxamide]: in the experiment with AsPC-1 cells, the IC50 is under 10 nM. Also, at KRAS (G12D), the 50% degradation concentration (DC50) was under 10 nM.

`CCn1nccc1-c1ccc([C@H](CO)NC(=O)[C@@H]2C[C@@H](O)CN2C(=O)[C@H](C(C)C)n2cc(-c3ccc(COc4c(-c5c(C)c(F)cc6[nH]ncc56)c(C5CC5)cc5c(N(C)[C@@H]6CCNC6)nc(O[C@H]6C[C@H](OC)C6)nc45)cc3)nn2)c2c1CC2` [Example 204, (2S,4R)-1-((2S)-2-(4-(4-(((6-cyclopropyl-7-(6-fluoro-5-methyl-1H-indazol-4-yl)-2-((1r,3R)-3-methoxycyclobutoxy)-4-(methyl((R)-pyrrolidin-3-yl)amino)quinazolin-8-yl)oxy)methyl)phenyl)-1H-1,2,3-triazol-1-yl)-3-methylbutanoyl)-N—((R)-1-(5-(1-ethyl-1H-pyrazol-5-yl)bicyclo[4.2.0]octa-1(6),2,4-trien-2-yl)-2-hydroxyethyl)-4-hydroxypyrrolidine-2-carboxamide] gave an IC50 in the experiment on AsPC-1 cells of under 10 nM. The compound also yielded a DC50 at KRAS (G12D) of under 10 nM.

In turn, `CCn1nccc1-c1ccc([C@H](CO)NC(=O)[C@@H]2C[C@@H](O)CN2C(=O)[C@H](C(C)C)n2cc(-c3ccc(COc4c(-c5c(C)c(F)cc6[nH]ncc56)c(C5CC5)cc5c(N(C)[C@@H]6CCNC6)nc(O[C@H]6C[C@H](OC)C6)nc45)cc3)nn2)cc1` [Example 205, (2S,4R)-1-((2S)-2-(4-(4-(((6-cyclopropyl-7-(6-fluoro-5-methyl-1H-indazol-4-yl)-2-((1r,3R)-3-methoxycyclobutoxy)-4-(methyl((R)-pyrrolidin-3-yl)amino)quinazolin-8-yl)oxy)methyl)phenyl)-1H-1,2,3-triazol-1-yl)-3-methylbutanoyl)-N—((R)-1-(4-(1-ethyl-1H-pyrazol-5-yl)phenyl)-2-hydroxyethyl)-4-hydroxypyrrolidine-2-carboxamide] showed a half-maximal inhibitory concentration (IC50) in the experiment on AsPC-1 cells of under 10 nM. Further, the half-maximal degradation concentration (DC50) on KRAS (G12D) was under 10 nM.

As for `CCn1nccc1-c1ccc([C@H](CO)NC(=O)[C@@H]2C[C@@H](O)CN2C(=O)[C@H](C(C)C)n2cc(-c3ccc(COc4c(-c5c(C)c(F)cc6[nH]ncc56)c(C5CC5)cc5c(N(C)C[C@H]6CCNC6)nc(OC[C@H](C)OC)nc45)cc3)nn2)cc1` [Example 206, (2S,4R)-1-((2S)-2-(4-(4-(((6-cyclopropyl-7-(6-fluoro-5-methyl-1H-indazol-4-yl)-2-((S)-2-methoxypropoxy)-4-(methyl(((S)-pyrrolidin-3-yl)methyl)amino)quinazolin-8-yl)oxy)methyl)phenyl)-1H-1,2,3-triazol-1-yl)-3-methylbutanoyl)-N—((R)-1-(4-(1-ethyl-1H-pyrazol-5-yl)phenyl)-2-hydroxyethyl)-4-hydroxypyrrolidine-2-carboxamide], the concentration for half-maximal inhibition (IC50) with AsPC-1 cells is under 10 nM. For the same compound, at KRAS (G12D), the DC50 was under 10 nM.

Take `CCn1nccc1-c1ccc([C@H](CO)NC(=O)[C@@H]2C[C@@H](O)CN2C(=O)[C@H](C(C)C)n2cc(-c3ccc(COc4c(-c5c(C)c(F)cc6[nH]ncc56)c(C5CC5)cc5c(N6CCCNCC6)nc(OC[C@@H]6CCCO6)nc45)cc3)nn2)cc1` [Example 207, (2S,4R)-1-((2S)-2-(4-(4-(((6-cyclopropyl-4-(1,4-diazepan-1-yl)-7-(6-fluoro-5-methyl-1H-indazol-4-yl)-2-(((S)-tetrahydrofuran-2-yl)methoxy)quinazolin-8-yl)oxy)methyl)phenyl)-1H-1,2,3-triazol-1-yl)-3-methylbutanoyl)-N—((R)-1-(4-(1-ethyl-1H-pyrazol-5-yl)phenyl)-2-hydroxyethyl)-4-hydroxypyrrolidine-2-carboxamide]: the 50% inhibitory concentration (IC50) with AsPC-1 cells is under 10 nM. The compound also returned a DC50 on KRAS (G12D) of under 10 nM.

In the experiment with AsPC-1 cells, `Cc1ncsc1-c1ccc([C@@H](NC(=O)[C@@H]2C[C@@H](O)CN2C(=O)[C@H](C(C)C)n2cc(-c3ccc(COc4c(-c5c(C)c(F)cc6[nH]ncc56)c(C5CC5)cc5c(N(C)[C@H]6CCNC6)nc(OC[C@H]6CCCO6)nc45)cc3)nn2)[C@H](C)O)cc1` [Example 208, (2S,4R)-1-((2S)-2-(4-(4-(((6-cyclopropyl-7-(6-fluoro-5-methyl-1H-indazol-4-yl)-4-(methyl((S)-pyrrolidin-3-yl)amino)-2-(((R)-tetrahydrofuran-2-yl)methoxy)quinazolin-8-yl)oxy)methyl)phenyl)-1H-1,2,3-triazol-1-yl)-3-methylbutanoyl)-4-hydroxy-N-((1R,2S)-2-hydroxy-1-(4-(4-methylthiazol-5-yl)phenyl)propyl)pyrrolidine-2-carboxamide] gave an IC50 of under 10 nM. The compound also had a DC50 on KRAS (G12D) of under 10 nM.

For the origin of these results see patent US20260295053A1, “COMPOUNDS FOR DEGRADATION AND INHIBITION OF KRAS (G12D) PROTEIN” (Shenzhen Ionova Life Science Co., Ltd., priority 2023, published 2026).
